For 39 compounds, EC50 results are on record in patent US10196363B2, “Dihydropyrimidin-2-one compounds and medical use thereof” (JAPAN TOBACCO INC., priority 2014, dated 2019).

Assay [1] concerns the target T1, mouse RORγ (Mus musculus, UniProt P51450).
T1 construct: mouse RORγ, from Ile251 to Lys516; expressed in transfected cells; host or cells: CHO cells (Chinese hamster ovary), transient co-transfection with pG5-Luc
T1 sequence (P51450 251-516): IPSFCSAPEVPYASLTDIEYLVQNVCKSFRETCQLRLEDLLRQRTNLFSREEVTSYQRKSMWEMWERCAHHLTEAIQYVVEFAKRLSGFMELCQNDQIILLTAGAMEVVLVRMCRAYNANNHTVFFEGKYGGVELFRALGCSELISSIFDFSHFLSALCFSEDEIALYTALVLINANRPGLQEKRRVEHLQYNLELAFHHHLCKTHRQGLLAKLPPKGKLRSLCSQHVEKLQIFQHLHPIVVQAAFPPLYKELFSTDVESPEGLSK
Nature of the assay: In vitro assay of inhibitory effect against RORγ transcriptional activity (GAL4-mRORγ LBD luciferase reporter gene assay in CHO cells). The assay is classed as cell-based. The settings on record: GAL4-mRORγ LBD luciferase reporter, CHO cells; read-out: LUC EC50 mRORγ. The gist of the method: (§1)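 Luciferase output, normalised to 0.2% DMSO vehicle (100%), served as the measure of RORγ transcriptional activity. The reporter was driven by GAL4-fused ligand-binding domains of human (residues 253–518) or mouse (251–516) RORγ in transiently transfected CHO cells. Cells received eight-point compound dilutions for 2 days, EC50 values were fitted, and cytotoxic points were dropped.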
(In general: In a reporter assay the amount or activity of a reporter protein is the signal.)

Assay [2] addresses T2, human RORγ (Homo sapiens, UniProt P51449).
T2 construct: human RORγ, from Ser253 to Lys518; expressed in transfected cells; host or cells: CHO cells (Chinese hamster ovary), transient co-transfection with pG5-Luc
T2 sequence (P51449 253-518): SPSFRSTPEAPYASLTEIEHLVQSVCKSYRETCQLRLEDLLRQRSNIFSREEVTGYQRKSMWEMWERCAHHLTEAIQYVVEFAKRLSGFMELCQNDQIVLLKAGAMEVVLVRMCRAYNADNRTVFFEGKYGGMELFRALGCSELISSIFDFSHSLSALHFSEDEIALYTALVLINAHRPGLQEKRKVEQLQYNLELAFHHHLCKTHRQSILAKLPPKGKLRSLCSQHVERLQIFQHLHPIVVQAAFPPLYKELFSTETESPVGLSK
Nature of the assay: In vitro assay of inhibitory effect against RORγ transcriptional activity (GAL4-hRORγ LBD luciferase reporter gene assay in CHO cells). The assay is classed as cell-based. The following applies: GAL4-hRORγ LBD luciferase reporter, CHO cells; read-out: LUC EC50 hRORγ. In outline:
as §1

For the compound `COCCC1=CN(c2ccc(C(=O)O)cc2)C(=O)N[C@@]1(C)c1ccc([C@H]2C[C@@H](C(C)(C)C)C2)c(Cl)c1` [Example 315], the EC50 (as a rule, the concentration needed to bring the measured effect to its halfway point) was 0.019 µM in assay [1] and 0.013 µM in assay [2].
For `CC(C)(C)CCc1ccc([C@]2(C)NC(=O)N(C34CC(C(=O)O)(C3)C4)C=C2C2CC(F)(F)C2)cc1Cl` [Example 316], in that order: 0.019 µM and 0.018 µM.
For `CC(C)C1=CN(CCC(=O)O)C(=O)N[C@@]1(C)c1ccc(C#CC(C)(C)C)c(Cl)c1` [Example 317], in that order: 0.024 µM and 0.04 µM.
For `COCCC1=CN(c2ccc(C(=O)O)cc2)C(=O)N[C@@]1(C)c1ccc([C@H]2C[C@@H](C(C)C)C2)c(Cl)c1` [Example 318], in that order: 0.014 µM and 0.017 µM.
In the case of `CC(C)(C)CCc1ccc([C@]2(C)NC(=O)N(CCC(=O)O)C=C2C2CC(F)(F)C2)cc1Cl` [Example 319], the EC50 in assay [1] worked out at 0.014 µM; in assay [2] it was 0.013 µM.
For `CC(C)(C)CCc1ccc([C@]2(C)NC(=O)N(c3ccc(C(=O)O)cn3)C=C2C2CC(F)(F)C2)cc1Cl` [Example 320], in that order: 0.027 µM and 0.023 µM.
For `CC1(C)CC=C(c2ccc([C@]3(C)NC(=O)N(CCC(=O)O)C=C3C3CC3)cc2Cl)CC1` [Example 321], in that order: 0.048 µM and 0.06 µM.
For `CC(C)C1=CN(C23CC(C(=O)O)(C2)C3)C(=O)N[C@@]1(C)c1ccc(CCC(C)(C)C)c(C(F)(F)F)c1` [Example 322], in that order: 0.019 µM and 0.021 µM.
Turning to `COCCC1=CN(c2ccc(C(=O)O)cc2)C(=O)N[C@@]1(C)c1ccc(CCC(C)(C)C)c(C(F)(F)F)c1` [Example 323], the values for the EC50 in assay [1] and in assay [2] were 0.023 µM and 0.051 µM, respectively.
On to `COCCC1=CN(C23CCC(C(=O)O)(C2)C3)C(=O)N[C@@]1(C)c1ccc(CCC(C)(C)C)c(C(F)(F)F)c1` [Example 324], for which the results for the EC50 in assay [1] and in assay [2] were 0.036 µM and 0.047 µM, respectively.
For `COCCC1=CN([C@H]2CC[C@H](C(=O)O)CC2)C(=O)N[C@@]1(C)c1ccc(CCC(C)(C)C)c(C(F)(F)F)c1` [Example 325], in that order: 0.06 µM and 0.174 µM.
For `CC(C)C1=CN(CCC(=O)O)C(=O)N[C@@]1(C)c1ccc(C2=CCC(F)(F)CC2)c(Cl)c1` [Example 327], in that order: 0.04 µM and 0.058 µM.
For `CC(C)C1=CN(CCC(=O)O)C(=O)N[C@@]1(C)c1ccc(C2CCC(F)(F)CC2)c(Cl)c1` [Example 328] the same measures were 0.019 µM and 0.035 µM.
For `CC(C)[C@H]1C[C@@H](c2ccc([C@]3(C)NC(=O)N([C@H]4C[C@H](C(=O)O)C4)C=C3C3CC(F)(F)C3)cc2Cl)C1` [Example 329], the EC50 amounted to 0.05 µM in assay [1] and 0.074 µM in assay [2].
For `COCCC1=CN(C23CCC(C(=O)O)(C2)C3)C(=O)N[C@@]1(C)c1ccc([C@H]2C[C@@H](C(C)C)C2)c(Cl)c1` [Example 330], in that order: 0.014 µM and 0.019 µM.
Regarding `COCCC1=CN(CCC(=O)O)C(=O)N[C@@]1(C)c1ccc(C2=CCC(C)(C)CC2)c(Cl)c1` [Example 331], the EC50 came to 0.008 µM in assay [1] and 0.014 µM in assay [2].
For `COCCC1=CN(c2ccc(C(=O)O)cc2)C(=O)N[C@@]1(C)c1ccc(C2=CCC(C)(C)CC2)c(Cl)c1` [Example 332] the same measures were 0.013 µM and 0.012 µM.
Turning to `COCCC1=CN(c2ccc(C(=O)O)c(OC)c2)C(=O)N[C@@]1(C)c1ccc(C2=CCC(C)(C)CC2)c(Cl)c1` [Example 333], the EC50 worked out at 0.013 µM in assay [1] and 0.023 µM in assay [2].
For `COCCC1=CN(c2ccc(C(=O)O)cn2)C(=O)N[C@@]1(C)c1ccc(C2=CCC(C)(C)CC2)c(Cl)c1` [Example 334] the same measures were 0.014 µM and 0.022 µM.
For `COCCC1=CN(CCC(=O)O)C(=O)N[C@@]1(C)c1ccc(CC2CCCCC2)c(Cl)c1` [Example 335] the same measures were 0.011 µM and 0.026 µM.
For `COCCC1=CN(c2ccc(C(=O)O)cc2)C(=O)N[C@@]1(C)c1ccc(CC2CCCCC2)c(Cl)c1` [Example 336] the same measures were 0.007 µM and 0.01 µM.
In the case of `COCCC1=CN(c2ccc(C(=O)O)c(OC)c2)C(=O)N[C@@]1(C)c1ccc(CC2CCCCC2)c(Cl)c1` [Example 337], the EC50 in assay [1] turned out to be 0.014 µM; in assay [2], 0.022 µM.
Turning to `COCCC1=CN(c2ccc(C(=O)O)cn2)C(=O)N[C@@]1(C)c1ccc(CC2CCCCC2)c(Cl)c1` [Example 338], the EC50 worked out at 0.012 µM in assay [1] and 0.013 µM in assay [2].
For `CC(C)(C)C1=CN(CCC(=O)O)C(=O)N[C@@]1(C)c1ccc(CC2CCCCC2)c(Cl)c1` [Example 339], in that order: 0.015 µM and 0.017 µM.
For `COCCC1=CN(C23CC(C(=O)O)(C2)C3)C(=O)N[C@@]1(C)c1ccc(CCC(C)(C)C)c(C(F)(F)F)c1` [Example 340] the same measures were 0.043 µM and 0.123 µM.
For `CC(C)(C)CCc1ccc([C@]2(C)NC(=O)N(C34CC(C(=O)O)(C3)C4)C=C2C2CC(F)(F)C2)cc1C(F)(F)F` [Example 341], in that order: 0.032 µM and 0.067 µM.
Regarding `CC(C)(C)CCc1ccc([C@]2(C)NC(=O)N(c3ccc(C(=O)O)cc3)C=C2C2CC(F)(F)C2)cc1C(F)(F)F` [Example 342], the results for the EC50 in assay [1] and in assay [2] were 0.028 µM and 0.043 µM, respectively.
For `CC(C)(C)CCc1ccc([C@]2(C)NC(=O)N(CCC(=O)O)C=C2C2CC(F)(F)C2)cc1C(F)(F)F` [Example 343], in that order: 0.019 µM and 0.038 µM.
For `COc1cc(N2C=C(C(C)C)[C@](C)(c3ccc(CCC(C)(C)C)c(C(F)(F)F)c3)NC2=O)ccc1C(=O)O` [Example 345] the same measures were 0.023 µM and 0.042 µM.
For `COc1cc(N2C=C(C3CC(F)(F)C3)[C@](C)(c3ccc(CCC(C)(C)C)c(Cl)c3)NC2=O)ccc1C(=O)O` [Example 346] the same measures were 0.018 µM and 0.026 µM.
For the compound `C[C@@]1(c2ccc(CC3CCCCC3)c(Cl)c2)NC(=O)N(CCC(=O)O)C=C1C1CC1` [Example 347], the results for the EC50 in assay [1] and in assay [2] were 0.035 µM and 0.109 µM, respectively.
For `CC(C)CCOc1ccc([C@]2(C)NC(=O)N(c3ccc(C(=O)O)cc3)C=C2C2CC(F)(F)C2)cc1Cl` [Example 348] the same measures were 0.039 µM and 0.046 µM.
With `CC(C)CCOc1ccc([C@]2(C)NC(=O)N(C34CC(C(=O)O)(C3)C4)C=C2C2CC(F)(F)C2)cc1Cl` [Example 349], the figures for the EC50 in assay [1] and in assay [2] were 0.045 µM and 0.063 µM, respectively.
For `C[C@@]1(c2ccc(OCCC3CC3)c(Cl)c2)NC(=O)N(c2ccc(C(=O)O)cc2)C=C1C1CC(F)(F)C1` [Example 350], in that order: 0.052 µM and 0.109 µM.
In the case of `CC(C)(C)COc1ccc([C@]2(C)NC(=O)N(c3ccc(C(=O)O)cc3)C=C2C2CC(F)(F)C2)cc1Cl` [Example 353], the half-maximal effective concentration (EC50) in assay [1] worked out at 0.045 µM; in assay [2] it was 0.059 µM.
For `C[C@@]1(c2ccc(OCCC3CC3)c(Cl)c2)NC(=O)N(C23CC(C(=O)O)(C2)C3)C=C1C1CC(F)(F)C1` [Example 354] the same measures were 0.144 µM and 0.239 µM.
For `CC(C)(C)COc1ccc([C@]2(C)NC(=O)N(C34CC(C(=O)O)(C3)C4)C=C2C2CC(F)(F)C2)cc1Cl` [Example 355] the same measures were 0.052 µM and 0.113 µM.
For `CC(C)C1=CN(c2ccc(C(=O)O)cc2)C(=O)N[C@@]1(C)c1ccc(CCC(C)(C)C)c(F)c1` [Example 356] the same measures were 0.015 µM and 0.021 µM.
For the compound `C[C@@]1(c2ccc(OCCC3CCC3)c(Cl)c2)NC(=O)N(C23CC(C(=O)O)(C2)C3)C=C1C1CC(F)(F)C1` [Example 357], the EC50 in assay [1] worked out at 0.029 µM; in assay [2], 0.034 µM.
